According to patent US20240116999A1, “CONFORMATIONALLY CONSTRAINED GLUCAGON ANALOGUES AND THEIR USE IN GLUCAGON-SINGLE CHAIN INSULIN FUSION PROTEINS” (THE TRUSTEES OF INDIANA UNIVERSITY, priority 2021, published 2024):
Bridge positions count the residues as written; N and C are the ends. Square brackets hold non-standard residues; d marks the D form. Ends that are not written are not given here. Peptide text beside a SMILES is read from it. Orn = NCCC[C@H](N)C(=O)O

Tests used:
glucagon receptor = glucagon receptor (Homo sapiens, UniProt P47871); assay: Cell-based cyclic AMP (cAMP) activity assay; conditions: for EC50: FIG. 8B, HEK-293 cells overexpressing glucagon receptor, read-out: EC50 (cAMP production)
Protocol: Cell-based Activity Assays. We generated a cAMP assay on HepG2 cells transiently transfected with the glucagon receptor (GCGR). The GCGR gene with C-terminal Flag tag was synthesized and ligated to a pcDNA 3.1 vector by Genscript. A plate of HepG2 cells was grown to 70% confluence and then transfected with 15 μg plasmid. […] Then, cAMP was measured following the instructions of the LANCETM Ultra cAMP Kit (PerkingElmer) using 3 technical replicates per point. This is a TR-FRET assay based on the competition between a europium-labeled cAMP and sample cAMP for binding to cAMP-specific labeled antibodies. In the LANCE cAMP assay, a higher sample cAMP (higher glucagon activity) translates to lower signal.

[1] = Thioflavin T (ThT) fibrillation assay; assay type: physicochemical; conditions: for formation of amyloid-like fibrils: FIG. 15, month-long assay, 100 μM, pH 7.4, 37° C.; for fibril formation: FIG. 5, relative to native glucagon
Protocol: Fibrillation Assays. We employed an automated plate-based fluorescent device to monitor the time course of peptide fibrillation using a Thioflavin T (ThT) assay. This assay is based on the THT fluorescence emission at 480 nm upon binding to mature fibrils when excited at 440 nm. The assay was performed by preparing stock solutions of the fusion protein and the individual peptides in either NaCl 0.9% (pH 2.5) or PBS (pH 7.4). Our experience has identified 100-μM final concentration as optimal fibrillation conditions for glucagon analogues. Stock solutions were diluted with NaCl 0.9% or 1X PBS buffer, pH adjusted (with 1N HCl or 1N NaOH) mixed with Thioflavin-T (THT) at a final concentration of 16 μM, centrifuged, and 250 μl of the sample were placed on a 96-well plate with 4-10 technical replicates. Measurements were done every 15 minutes and the sample agitated at 1096 cpm at 37° C. on a Synergy H1 microplate reader (BioTek, Winooski, VT). The lag time, defined as the time-point at which fibrillation starts its exponential phase, was considered as the point at which fluorescence was 3 times the background signal.

normal rats [2] = assay: In vivo glucagon activity assay in normal rats; design: species or system rat; conditions: for in vivo glucagon activity (rise in blood glucose): subcutaneous injection
Protocol: Glucagon Activity Assays. […] Glucagon or analogues were prepared (150 μg/ml in sterile 50 mM Tris-HCl buffer (pH 8.0)) and administered by subcutaneous injections (40.1 nmol/kg (˜50 ug/333 g rat)) in an injection volume of 200 μl/333 g rat. Rats were grouped according to their 2nd measured starting blood-glucose concentrations to ensure similar starting values at time=0. For in vivo dose-response studies a series of doses (40.1, 8.0, 1.6, 0.32, 0.064, and 0.013 nmol/kg) was tested in groups of 4-5 rats at each dose. Diluent volume was 200 μl/333 g rat. Experiments were repeated at least twice, and the results were averaged. The rise in blood glucose values were corrected by any changes observed in diluent-injected rats.

STZ (diabetic) rats = assay: In vivo assay in STZ (diabetic) rats, subcutaneous injection; design: species or system rat
Description: FIG. 17 presents an in vivo assay done in STZ rats.
FIG. 18 presents another in vivo assay done in STZ rats. The four fusion proteins used in FIG. 17 were subcutaneously injected at doses of 23.8 nmol/kg per rat. […] In this study both fusion proteins carrying an active SCI analogue had similar activities.

normal rats [3] = assay: Stability assay: samples incubated at 37° C., then activity tested; assay type: in vivo, rat; conditions: FIG. 11; 150 μg/ml in 50 mM Tris buffer pH 8.0, 37° C., mild agitation and rotation; tested t=0, day 3, day 7
Protocol: Glucagon Activity Assays. The glycemic activities of glucagon analogues were tested (Ismail-Beigi ,Case Western Reserve University) in normal male rats (250-350 g) that were fasted for 4 h before the injection and not fed during the course of the experiment (4-5 rats per dose of glucagon in parallel). Glucagon or analogues were prepared (150 μg/ml in sterile 50 mM Tris-HCl buffer (pH 8.0)) and administered by subcutaneous injections (40.1 nmol/kg (˜50 ug/333 g rat)) in an injection volume of 200 μl/333 g rat. Rats were grouped according to their 2nd measured starting blood-glucose concentrations to ensure similar starting values at time=0. For in vivo dose-response studies a series of doses (40.1, 8.0, 1.6, 0.32, 0.064, and 0.013 nmol/kg) was tested in groups of 4-5 rats at each dose. Diluent volume was 200 μl/333 g rat. Experiments were repeated at least twice, and the results were averaged. The rise in blood glucose values were corrected by any changes observed in diluent-injected rats.
To test for stability of glucagon and its analogues, samples (150 μg/ml in 50 mM Tris-HCl buffer (pH 8.0)) were incubated at 37° C. with mild agitation and rotation. Samples were tested as described above after varying periods of incubation.

[4] = pH 2.5, 37° C., constant agitation

Chain of glucagon receptor (P47871 26-477, species assumed): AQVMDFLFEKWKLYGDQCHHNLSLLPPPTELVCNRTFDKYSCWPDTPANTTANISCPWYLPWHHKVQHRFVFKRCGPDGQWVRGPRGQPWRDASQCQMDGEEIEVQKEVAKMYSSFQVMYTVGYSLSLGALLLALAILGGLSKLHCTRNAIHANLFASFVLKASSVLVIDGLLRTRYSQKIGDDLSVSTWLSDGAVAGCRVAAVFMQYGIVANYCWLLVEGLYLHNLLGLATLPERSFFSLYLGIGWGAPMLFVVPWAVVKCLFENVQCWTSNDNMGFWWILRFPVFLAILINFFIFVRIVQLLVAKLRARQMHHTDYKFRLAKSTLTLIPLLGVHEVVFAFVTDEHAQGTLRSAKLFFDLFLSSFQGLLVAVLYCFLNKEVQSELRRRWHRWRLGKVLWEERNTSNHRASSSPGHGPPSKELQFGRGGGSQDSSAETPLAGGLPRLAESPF

Compound: CSCC[C@H](NC(=O)[C@H](CC(C)C)NC(=O)[C@H](Cc1c[nH]c2ccccc12)NC(=O)[C@H](CCC(N)=O)NC(=O)[C@@H](NC(=O)[C@H](Cc1ccccc1)NC(=O)[C@H](CC(=O)O)NC(=O)[C@H](CCC(N)=O)NC(=O)[C@H](C)NC(=O)[C@H](CCCN)NC(=O)[C@H](CCCN)NC(=O)[C@H](CO)NC(=O)[C@H](CC(=O)O)NC(=O)[C@H](CC(C)C)NC(=O)[C@H](Cc1ccc(O)cc1)NC(=O)[C@H](CCCN)NC(=O)[C@H](CO)NC(=O)[C@H](Cc1ccc(O)cc1)NC(=O)[C@H](CC(=O)O)NC(=O)[C@H](CO)NC(=O)[C@@H](NC(=O)[C@H](Cc1ccccc1)NC(=O)[C@@H](NC(=O)CNC(=O)[C@H](CCC(N)=O)NC(=O)[C@H](CO)NC(=O)[C@@H](N)Cc1c[nH]cn1)[C@@H](C)O)[C@@H](C)O)C(C)C)C(=O)N[C@@H](CC(N)=O)C(=O)N[C@H](C(=O)N[C@@H](CCC(=O)O)C(=O)N[C@@H](CCC(=O)O)C(=O)N[C@@H](CCCCN)C(=O)O)[C@@H](C)O [SEQ ID NO: 21, HSQGTFTSDYSOYLDSOOAQDFVQWLMNTEEK] (H-HSQGTFTSDYS[Orn]YLDS[Orn][Orn]AQDFVQWLMNTEEK-OH; N-terminus and C-terminus assumed)
- EC50 (glucagon receptor): 0.0935 µM
- formation of amyloid-like fibrils [1]: formed amyloid-like fibrils

Compound: HSQGTFTSDYSKKLDSERAQDFVQWLMNT (lactam 13-17) [SEQ ID NO: 10, a lactam bridge connects the side chains of variant residues K13 and E17]
- in vivo glucagon activity (rise in blood glucose) (normal rats [2]; FIGS. 9, 10, 13, listed as [Lys13, Glu17]-glucagon lactam): active

Compound: HSQGTFTSDYSOKLDSEOAQDFVQWLMNTEEK (HSQGTFTSDYS[Orn]KLDSE[Orn]AQDFVQWLMNTEEK; lactam 13-17) [[Lys13, Glu17]-glucagon-EEK linear, includes the [Lys13-Glu17] substitutions but not the side-chain lactam bond]
- potency (cAMP assay) (glucagon receptor; FIG. 8, relative to the lactam analogue): markedly diminished potency
- in vivo glucagon activity (rise in blood glucose) (normal rats [2]; FIGS. 9, 10, 13): inactive

Compound: HSQGTFTSKYSOELDSOOAQDFVQWLMNTEEK (HSQGTFTSKYS[Orn]ELDS[Orn][Orn]AQDFVQWLMNTEEK; lactam 9-13) [SEQ ID NO: 24]
- in vivo glucagon activity (rise in blood glucose) (normal rats [2]; FIGS. 9, 10, 13): inactive

Compound: HSQGTFTSDYSKYLDSRRAQDFVQWLMNTK [SEQ ID NO: 3]
- fibril formation [1, 4]: delay fibril formation

Compound: HSQGTFTSKYSOELDSOOAQDFVQWLMNTEEKFVNQHLCGSHLVEALYLVCGEOGFFYTPETEEGPOOGIVEQCCQSICSLEQLENYCN [SEQ ID NO: 75]
- activity at 23.8 nmol/kg relative to the 12-nmol/kg rat doses (STZ (diabetic) rats; FIG. 18 vs FIG. 17, STZ rats): increased activity at the increased dose

Compound: HSQGTFTSDYSKKLDSERAQDFVQWLMNT (lactam 13-17) [[Lys13, Glu17]-Glucagon linear, linear [Lys13, Glu17] analogue without Orn substitutions or C-terminal EEK extension]
- in vivo glucagon activity (rise in blood glucose) (normal rats [2]; FIGS. 9, 10, 13): only analogue that is active, other than wild-type glucagon, was the [Lys13, Glu17]-glucagon lactam

Compound: HSQGTFTSDYSKYLDSRRAQDFVQWLMNTR (glucagon peptide analog) [SEQ ID NO: 2]
- fibril formation [1, 4]: delay fibril formation

Compound: CSCC[C@H](NC(=O)[C@H](CC(C)C)NC(=O)[C@H](Cc1c[nH]c2ccccc12)NC(=O)[C@H](CCC(N)=O)NC(=O)[C@@H](NC(=O)[C@H](Cc1ccccc1)NC(=O)[C@H](CC(=O)O)NC(=O)[C@H](CCC(N)=O)NC(=O)[C@H](C)NC(=O)[C@H](CCCN)NC(=O)[C@@H]1CCC(=O)NCCCC[C@H](NC(=O)[C@H](CCCN)NC(=O)[C@H](CO)NC(=O)[C@H](Cc2ccc(O)cc2)NC(=O)[C@H](CC(=O)O)NC(=O)[C@H](CO)NC(=O)[C@@H](NC(=O)[C@H](Cc2ccccc2)NC(=O)[C@@H](NC(=O)CNC(=O)[C@H](CCC(N)=O)NC(=O)[C@H](CO)NC(=O)[C@@H](N)Cc2c[nH]cn2)[C@@H](C)O)[C@@H](C)O)C(=O)N[C@@H](CC(C)C)C(=O)N[C@@H](CC(=O)O)C(=O)N[C@@H](CO)C(=O)N1)C(C)C)C(=O)N[C@@H](CC(N)=O)C(=O)N[C@H](C(=O)N[C@@H](CCC(=O)O)C(=O)N[C@@H](CCC(=O)O)C(=O)N[C@@H](CCCCN)C(=O)O)[C@@H](C)O [SEQ ID NO: 23, HSQGTFTSDYSOKLDSEOAQDFVQWLMNTEEK] (H-HSQGTFTSDYS[Orn]KLDSE[Orn]AQDFVQWLMNTEEK-OH; lactam 13-17; N-terminus and C-terminus assumed)
- biological activity after incubation (stability) (normal rats [3]): maintained full biological activity
- EC50 (glucagon receptor): 0.126 µM
- time without fibril formation ([1]; FIG. 7, phosphate-buffered saline pH 7.4, 100 μM, 37° C., constant agitation): > 11 days
- formation of amyloid-like fibrils [1]: did not form amyloid-like fibrils within the duration of the experiment
- rise in blood glucose levels (normal rats [2]; FIG. 12, 8 nmol/kg rat dose): minor raise
- rise in blood glucose levels, dose-response (normal rats [2]; FIG. 12, doses 0.32, 1.6, 8 and 40 nmol/kg rat): only at the maximum dose
- in vivo glucagon activity (rise in blood glucose) (normal rats [2]; FIGS. 9, 10, 13): maximal activity
- in vivo glucagon activity (rise in blood glucose) (normal rats [2]; FIGS. 9, 10, 13, listed as [Lys13, Glu17]-glucagon-EEK lactam): active

Compound: HSQGTFTSDYSKYLDSRRAQDFVQWLMNTO [SEQ ID NO: 5]
- fibril formation [1, 4]: delay fibril formation
- fibril formation ([1]; pH 7.4, 37° C., constant agitation): delay fibril formation

Compound: HSQGTFTSDYSOYLDSOOAQDFV[D-Cys]WLCNTEEK [[D-Cys24-Cys27] L]
- in vivo glucagon activity (rise in blood glucose) (normal rats [2]; FIGS. 9, 10, 13): only analogue that is active, other than wild-type glucagon, was the [Lys13, Glu17]-glucagon lactam

Compound: insulin Lispro [reference compound]
- formation of amyloid-like fibrils [1]: formed amyloid-like fibrils

Compound: human insulin [reference compound]
- formation of amyloid-like fibrils [1]: formed amyloid-like fibrils

Compound: FVNQHLCGSHLVEALYLVCGEOGFFYTPETEEGPOOGIVEQCCQSICSLEQLENYCN (FVNQHLCGSHLVEALYLVCGEXGFFYTPETEEGPXXGIVEQCCQSICSLEQLENYCN; ornithine residues; insulin peptide analog; (22)..(22) Xaa at position 22 is Orn.; (35)..(35) Xaa at position 35 is Orn.; (36)..(36) Xaa at position 36 is Orn.) [SEQ ID NO: 71, 57-residue single-chain insulin (SCI) analogue lacking internal tryptic sites]
- biological activity relative to insulin Lispro (KP-insulin) (STZ (diabetic) rats; FIG. 14, STZ (diabetic) rats, 30-μg dose of SCI vs 15-μg dose of KP-insulin): slightly higher activity than a 15-μg dose of KP-insulin
- formation of amyloid-like fibrils [1]: did not form amyloid-like fibrils within the duration of the experiment

Compound: CC(C)C[C@H](NC(=O)[C@H](Cc1c[nH]c2ccccc12)NC(=O)[C@H](CCCCN)NC(=O)[C@@H](NC(=O)[C@H](Cc1ccccc1)NC(=O)[C@H](CCC(=O)O)NC(=O)[C@H](CCC(=O)O)NC(=O)[C@H](C)NC(=O)[C@H](CCCNC(=N)N)NC(=O)[C@H](C)NC(=O)C(C)(C)NC(=O)[C@H](CC(=O)O)NC(=O)[C@H](CC(C)C)NC(=O)[C@H](Cc1ccc(O)cc1)NC(=O)[C@H](CCCCN)NC(=O)[C@H](CO)NC(=O)[C@H](Cc1ccc(O)cc1)NC(=O)[C@H](CC(=O)O)NC(=O)[C@H](CO)NC(=O)[C@@H](NC(=O)[C@H](Cc1ccccc1)NC(=O)[C@@H](NC(=O)CNC(=O)[C@H](CCC(N)=O)NC(=O)[C@H](CO)NC(=O)[C@@H](N)Cc1c[nH]cn1)[C@@H](C)O)[C@@H](C)O)C(C)C)C(=O)N[C@@H](CCC(=O)O)C(=O)N[C@@H](CO)C(=O)N[C@H](C(=O)O)[C@@H](C)O [dasiglucagon, reference compound]
- biological activity after incubation (stability) (normal rats [3]): maintained full biological activity
